Experimental data: patent publication US6177592A, “Compounds” (priority 1997, dated 2001)

Experiments:
[1] = test system: DSEK cell (fibroblast strain from synovial membrane); experiment: Growth of DSEK synovial fibroblasts (WST-1) and apoptosis; assay type: cell-based, human (patient suffering from chronic articular rheumatism)
Description: DSEK cell (cell strain stored at the Department of Second Internal Medicine, Integrated Medical Center, Saitama College of Medicine) which was a fibroblast strain established from synovial membrane of a patient suffering from chronic articular rheumatism was incubated in an Iscob-modified Dulbecco medium (IMDM, manufactured by Gibco, 12440-053) containing 10% fetal bovine serum (FBS, manufactured by Gibco, 26140-079) at 37° C. in the presence of 5% carbon dioxide gas until confluent and then the cells were collected by peeling off with trypsin-EDTA (manufactured by Gicbo, 25300-054). The cells were suspended in the above-mentioned medium until 25,000 cells/ml were resulted and each 100 μl was placed in each well of a 96-well microtiter plate. After five days from incubation when the state of confluence was almost achieved, the medium was discarded and then the above-mentioned medium containing 2.5, 5, 10, 20 or 30 μM of GM was added. After incubating for 24, 48 or 72 hours, 10 μl of a premix WST-1 (manufactured by Takara Shuzo, MK400) was added thereto followed by subjecting to a reaction at 37° C. for four hours. The value obtained by deducting the absorbance at 650 nm (A650) from that at 450 nm (A450) was defined as a degree of growth of cell.

[2] = test system: Jurkat cells; experiment: Growth of Jurkat cells (MTT); assay type: cell-based, human; conditions: 24 hours
Description: (1) Jurkat cells (ATCC TIB-152) and Molt-3 cells (ATCC CRL-1552) which were human T cell leukemia cell stain were incubated in an RPMI 1640 medium (manufactured by Gibco BRL) containing 10% fetal calf serum (FCS, manufactured by Bio Whittaker) at 37° C. in the presence of 5% CO2 and the cells were then suspended in the above-mentioned medium containing 0, 5, 10 or 20 μM of GM to make the cell numbers 5×10^5 cells/ml followed by incubating for 24 hours. Cell growth was measured by an MTT method [Mosmann, et al.: J. Immunol. Methods, volume 65, pages 55-63 (1983)] wherein degree of cell growth was determined by the absorbance at 560 nm.

[3] = test system: NIH 3T3; experiment: Colony formation of NIH 3T3 cells; assay type: cell-based; conditions: 5 μM GM, nine days; control 91.7 ± 11.9
Description: NIH 3T3 cells were incubated at 37° C. under the condition of 5% CO2 in a Dulbecco-modified Eagle's medium containing 10% of calf serum.
(2) NIH 3T3 cells, the cells strains into which control vector was introduced and the cell strains into which E7 was introduced were made to grow to an extent of 50-70% confluence in a Dulbecco-modified Eagle's medium containing 10% of calf serum using a 100 mm-tissue culture plate and washed with PBS and the cells were peeled off with a 0.25% trypsin-EDTA solution and suspended in 5 ml of Dulbecco-modified Eagle's medium containing 10% of calf serum.
A part of the suspension was taken out and cell density was counted by a Neubauer's hemocytometer. Based upon the resulting data, it was diluted with a Dulbecco-modified Eagle's medium containing 10% of calf serum and planted on a tissue culture plate having a diameter of 60 mm to make 200 cells/plate and incubation was started in 3 ml of the medium. After 24 hours from the initiation of the incubation, GM was added thereto to make its concentration 5 μM. After additional 24 hours, the medium was exchanged with a fresh one and GM was added thereto to make its concentration 5 μM.
After that, the medium was exchanged with a fresh one every two to three days followed by adding GM thereto to make its concentration 5 μM. […]

[4] = test system: NIH 3T3/Y-1; experiment: Colony formation of control-vector NIH 3T3/Y-1 cells; assay type: cell-based; conditions: 5 μM GM, nine days; control 83.3 ± 8.4
Description: (1) Transformation to Escherichia coli HB101 was conducted by control plasmid pcD2-Y expressing G418-resisting gene [Mol. Cell. Biol., volume 7, pages 2745-2752 (1987)] and plasmid pcD2-16E7 which was capable of expressing both HPV 16 type E7 and G418-resisting gene [Jpn. J. Cancer Res., volume 82, pages 1340-1343 (1991)], then incubation was conducted in an L-broth medium and plasmid was extracted from the collected cells and purified by a cesium chloride density gradient ultracentrifugation to give vector plasmid for introduction of gene.
The purified plasmid (10 μg) was introduced into NIH 3T3 cells using a cationic liposome (TransIT LT-1, manufactured by Takara Shuzo), the cells were selected at 37° C. under the condition of 5% CO2 for two weeks in a Dulbecco-modified Eagle's medium containing 10% calf serum which contained 0.4 mg/ml of G418 (Gibco) and the resulting colonies were cloned to establish each nine strains of NIH 3T3 cells into which control vector was introdcd and NIH 3T3 cells which was cancerated with HPV 16 type E7.
The cell strains into which control vector was introduced were named NIH 3T3/Y-1, NIH 3T3/Y-2, NIH 3T3/Y-3, NIH 3T3/Y-4, NIH 3T3/Y-5, NIH 3T3/Y-6, NIH 3T3/Y-7, NIH 3T3/Y-8 and […]). […]
A part of the suspension was taken out and cell density was counted by a Neubauer's hemocytometer. […]

With N[C@@H](CCC(=O)N[C@@H](CSC1C=C(O)C(=O)C1)C(=O)NCC(=O)O)C(=O)O (stereo partly drawn) [GM, 2-hydroxy-4-glutathion-S-yl-2-cyclopenten-1-one] the “degree of growth of cell (A450 - A650)” value ([1]; 2.5 μM, 24 hours, 0 μM 0.846) was 0.768, the “degree of growth of cell (A450 - A650)” value ([1]; 2.5 μM, 48 hours, 0 μM 1.270) was 1.133 and the “degree of growth of cell (A450 - A650)” value ([1]; 5 μM, 24 hours, 0 μM 0.846) was 0.621. The “degree of growth of cell (A450 - A650)” value ([1]; 5 μM, 48 hours, 0 μM 1.270) was 0.942, the “production of apoptic bodies” value ([1]; 10 μM) was “production of apoptic bodies was noted” and the “degree of growth of cell (A450 - A650)” value ([1]; 10 μM, 24 hours, 0 μM 0.846) was 0.420. The “degree of growth of cell (A450 - A650)” value ([1]; 10 μM, 48 hours, 0 μM 1.270) was 0.486, the “degree of growth of cell (A450 - A650)” value ([1]; 20 μM, 24 hours, 0 μM 0.846) was 0.238 and the “degree of growth of cell (A450 - A650)” value ([1]; 20 μM, 48 hours, 0 μM 1.270) was 0.185. The “degree of growth of cell (A450 - A650)” value ([1]; 30 μM, 24 hours, 0 μM 0.846) was 0.241, the “degree of growth of cell (A450 - A650)” value ([1]; 30 μM, 48 hours, 0 μM 1.270) was 0.196 and the “apoptosis-inducing and growth-inhibiting action to synovial cells (in words)” value ([1]; Example 11) was “apoptosis-inducing action and growth-inhibiting action to synovial cells”. The minimal effective concentration ([1]; Homo sapiens, Fibroblast, 24 and 48 hours, vs control, read-out: concentration at which cell growth was inhibited) was no less than 5 µM, the “effect in the growth of cells” value ([2]; 5 μM or less) was “no significant effect in the growth of cells” and the inhibition at 10 µM ([2]; Homo sapiens, 10 μM, read-out: inhibition of cell growth) was roughly 50%. For the same compound, the inhibition at 20 µM ([2]; Homo sapiens, 20 μM, read-out: inhibition of cell growth) was no less than 75%, the “Numbers of Colonies (Mean Value ± SD)” value [3] was 79.0 ± 2.6 and the “Numbers of Colonies (Mean Value ± SD)” value [4] was 72.0 ± 9.5.
